Laboratory results from US12458709B2, “Compositions and methods for imaging a cell” (NOVOCURE GMBH, priority 2019, dated 2025).

System: clathrin-dependent pathway or macro-pinocytosis pathway
Experiment: Effect of endocytosis pathway inhibitors on BTNP accumulation in response to TTFields
Format: cell-based
Conditions: specific inhibitors of clathrin-dependent or macro-pinocytosis pathway

| SMILES | effect on accumulation of BTNPs in cytoplasm in response to TTFields |
| --- | --- |
| N=C(N)NC(=O)c1nc(Cl)c(N)nc1N [amiloride] | did not modulate |
| CN(C)CCCN1c2ccccc2Sc2ccc(Cl)cc21 [chlorpromazine] | did not modulate |
| C=C1[C@@H](C)[C@H]2[C@H](Cc3ccccc3)NC(=O)[C@]23[C@H](OC(C)=O)/C=C/[C@@](C)(O)C(=O)[C@@H](C)C/C=C/[C@H]3[C@@H]1O [cytochalasin D] | did not modulate |
